Experimental data as given in US10934250B2, “Process for the preparation of a chelating agent” (TRADE CORPORATION INTERNATIONAL, S.A. UNIPERSONAL, priority 2015, dated 2021).

Experiment: Stability constants of Fe3+ chelates by spectrophotometric titration
Assay type: physicochemical
Conditions: for Stability constant, L + H^+ + Fe^3+ -> FeHL / Stability constant, L + Fe^3+ -> FeL / Stability constant, L + OH^- + Fe^3+ -> FeOHL: chelant agent:Fe^3+ 1:1, I=0.10M (NaCl), titration with 0.1 M NaOH pH 2.7 to 12.0, absorbance at 480 nm; for Stability constant, L + H^+ + Fe^3+ -> FeHL: FeHL predominant at pH <4.0; for Stability constant, L + Fe^3+ -> FeL: FeL predominant at pH 4 to 6.5; for Stability constant, L + OH^- + Fe^3+ -> FeOHL: FeOHL predominant at pH >6.5
Procedure: Stability constant of the Fe^3+ chelate compound of Example 4 (CRENEAHA) were determined spectrophotometrically by titration of a 2.22·10^−4 M (12.5 mg/L) and I=0.10M (NaCl) with 0.1 M NaOH from a pH of 2.7 to a pH of 12.0 and measuring the absorbance variation at 480 nm.
Stability constant of the Fe^3+ chelate compound of Example 2 (CREMEAHA) were determined spectrophotometrically by titration of a […] (12.5 mg/L) and I=0.10M (NaCl) with 0.1 M NaOH from a pH of 2.7 to a pH of 12.0 and measuring the absorbance variation at 480 nm.
Stability constants were determined minimizing the difference between calculated absorbance and experimental absorbance by varying the stability constants of Fe^3+. Every assay was repeated four times. The stability constant value for each compound is not dependent on the concentration of the solution used to carry out the spectrophotometric titration.

Row | Stability constant, L + H^+ + Fe^3+ -> FeHL | Stability constant, L + Fe^3+ -> FeL | Stability constant, L + OH^- + Fe^3+ -> FeOHL | Stability of the Fe^3+ chelate compared with the Fe^3+ chelate of Example 2 (CREMEAHA) (particularly at high pH) | Compound
1 | 33.9 | 28.6 | 21.2 | – | Cc1ccc(O)c(C(NCCO)C(=O)O)c1 (stereo not shown) [CREMEAHA]
2 | 37.5 | 33.4 | 26.9 | better stability | Cc1ccc(O)c(C(NCCNCCO)C(=O)O)c1 (stereo not shown) [CRENEAHA]
